Experimental data as given in PubChem BioAssay (NCI).
Where “and” joins values, the source holds several entries; their conditions need not be identical. Equal values may be shown once.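 A five-concentration, 48-hour dose response in 96-well plates underlies each endpoint, interpolated linearly between surrounding concentrations. Here, GI50 denotes the concentration required for 50% inhibition of growth. The concentration for full growth arrest is given as TGI.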

Experiments:
Assay in all cases: NCI anticancer screen, dose series, 48 h
786-0 renal = system: 786-0 renal
A549 NSCLC = system: A549 NSCLC
DMS 273 small cell lung = system: DMS 273 small cell lung
KM20L2 colon = system: KM20L2 colon
LXFL 529 NSCLC = system: LXFL 529 NSCLC
SF-268 CNS = system: SF-268 CNS
SK-MEL-2 melanoma = system: SK-MEL-2 melanoma
MOLT-4 leukemia = system: MOLT-4 leukemia
DU-145 prostate = system: DU-145 prostate
NCI/ADR-RES ovarian = system: NCI/ADR-RES ovarian

Row | SMILES | TGI (786-0 renal) | TGI (A549 NSCLC) | TGI (DMS 273 small cell lung) [µM] | TGI (KM20L2 colon) [µM] | TGI (LXFL 529 NSCLC) [µM] | TGI (SF-268 CNS) | TGI (SK-MEL-2 melanoma) | TGI (MOLT-4 leukemia) | GI50 (786-0 renal) | GI50 (DU-145 prostate) | TGI (DU-145 prostate) | TGI (NCI/ADR-RES ovarian) | GI50 (A549 NSCLC) | GI50 (KM20L2 colon) [µM] | GI50 (MOLT-4 leukemia) | GI50 (NCI/ADR-RES ovarian) | GI50 (SF-268 CNS) | GI50 (SK-MEL-2 melanoma)
1 | COc1cc(C[P+](c2ccccc2)(c2ccccc2)c2ccccc2)cc(OC)c1OC | > 100 µM | > 100 µM | > 100 | > 100 | > 100 | > 100 µM | > 100 µM | – | – | – | – | – | – | – | – | – | – | –
2 | COc1ccc(NC(=O)CSc2nnc(-c3ccc(NC(C)=O)cc3)o2)cc1 | 39.1 µM | 45.3 µM | 33.7 | 36.8 | 26.7 | 34.8 µM | 38 µM | 40.9 µM | – | – | – | – | – | – | – | – | – | –
3 | Nc1nc(Cl)nc2c1ncn2C1CC(O)C(CO)O1 (stereo not given) | > 100 µM | > 100 µM | 47.1 | > 100 | – | > 95.7 µM | > 100 µM | > 79.3 µM | 2.45 µM | 1.81 µM | > 100 µM | > 100 µM | – | – | – | – | – | –
4 | O/N=C1\CCCCC1C(NO)c1ccccc1 (stereo not given) | > 100 µM | > 100 µM | > 100 | > 100 | > 100 | > 100 µM | > 100 µM | > 100 µM | – | – | – | – | – | – | – | – | – | –
5 | O=C(c1ccc([N+](=O)[O-])cc1[N+](=O)[O-])N(/N=C/C=C/c1ccccc1)c1nnc(-c2ccccc2)c(-c2ccccc2)n1 | 56 µM | > 100 µM | 72.6 | > 100 | – | > 100 µM | 97.5 µM | > 100 µM | – | – | – | – | – | – | – | – | – | –
6 | CCCCCCCC(=O)OCC1OC(n2cc(F)c(=O)[nH]c2=O)C(N)C(OC(=O)CCCCCCC)C1O (stereo not given) | 33.5 µM | 32.3 µM | 30.8 | 33.7 | 30.9 | 35.4 µM | 38.5 µM | 33.6 µM | – | – | – | – | – | – | – | – | – | –
7 | CC(C)C1CN(C(=O)OCc2ccccc2)C2N1C(=O)C2(C)OCc1ccccc1 (stereo not given) | > 100 µM | > 100 µM | > 100 | > 100 | > 100 | > 100 µM | 73.5 µM | 84 µM | – | – | – | – | – | – | – | – | – | –
8 | CCC(C)(C)n1c(C)nc2c1C(=O)c1ccccc1C2=O | > 100 µM | > 100 µM | 44.6 | > 100 | > 100 | > 100 µM | 42.3 µM | > 100 µM | – | – | – | – | – | – | – | – | – | –
9 | O=S(=O)(OI(OI(OS(=O)(=O)C(F)(F)F)c1ccccc1)c1ccccc1)C(F)(F)F | > 100 µM | > 100 µM | > 100 | > 100 | > 100 | > 100 µM | > 100 µM | > 100 µM | – | – | – | – | – | – | – | – | – | –
10 | Cc1cc(C)nc(NS(=O)(=O)c2ccc(Nc3c4ccccc4nc4c(C(=O)N5CCN(CCO)CC5)cccc34)cc2)n1 | > 100 µM | > 100 µM | > 100 | > 100 | > 100 | > 100 µM | > 100 µM | > 100 µM | – | – | – | – | – | – | – | – | – | –
11 | CN(C)CCNC(=O)Cc1ccccc1Nc1c(Cl)cccc1Cl | 25.7 µM | 36 µM | 30.5 | 13.9 | 32.5 | 36.2 µM | – | 36.7 µM | – | – | – | – | – | – | – | – | – | –
12 | NC(=S)N/N=C/c1ncccc1O | 20.3 µM and 8.34 µM | > 59.4 µM and 31.3 µM | 5.96 | 76.5 | – | 29.6 µM and 89.4 µM | > 40 µM and 135 µM | 33.2 µM and 42.7 µM | 0.348 µM | 1.46 µM and 0.77 µM | 17.1 µM and > 114 µM | 38 µM and 6.56 µM | 3.39 µM | 3.74 | 1.76 µM | 2.21 µM | 2.88 µM and 0.736 µM | 21.3 µM
13 | CCn1cc(-c2ccnc3[nH]c(-c4cccc(CN(C)C)c4)cc23)c(-c2ccc(NC(=O)N(C)C)cc2)n1 | 20.3 µM and > 10 µM | 16.1 µM and > 10 µM | – | – | – | 20.9 µM and > 10 µM | 9.87 µM and > 10 µM | 39.3 µM and > 10 µM | 2.79 µM and 2.59 µM | 3.63 µM and 1.97 µM | 37.8 µM and > 10 µM | > 100 µM | 0.238 µM and 0.747 µM | – | 2.15 µM and 1.74 µM | 23.4 µM and > 10 µM | 3.03 µM and 2.07 µM | 2.43 µM and 2.19 µM
14 | O=C1C/C(Br)=C\c2ccccc2-c2ccccc21 | 2.91 µM | 21.8 µM | 7.65 | 8.28 | 3.5 | 8.39 µM | 12.2 µM | 7.81 µM | – | – | – | – | – | – | – | – | – | –
15 | O=c1[nH]c(-c2cccc(F)c2)cc2cc(F)ccc12 | > 100 µM | > 100 µM | – | – | – | > 100 µM | > 100 µM | > 100 µM | 2.87 µM | 0.507 µM | > 100 µM | > 100 µM | 0.798 µM | – | 0.568 µM | 0.268 µM | > 82.9 µM | 0.513 µM
16 | CCOC(=O)c1c(C)c2c(n1Cc1ccccc1)CSCC2=O | 63.1 µM | > 100 µM | – | – | – | > 100 µM | 45.7 µM | 51.9 µM | 24.1 µM | 21.9 µM | > 100 µM | 51.4 µM | 30.6 µM | – | 12.2 µM | 16.7 µM | 19.3 µM | 18.4 µM
17 | O=C1c2cccc3cccc(c23)C(=O)N1CCN(CCO)CCO | > 100 µM | 70.7 µM | 66.3 | 56.6 | > 100 | > 100 µM | 30.2 µM | 80.8 µM | – | – | – | – | – | – | – | – | – | –
18 | Nc1c(S(=O)(=O)c2ccc(Cl)cc2)c2nc3ccccc3nc2n2ccnc12 | > 100 µM | > 100 µM | > 100 | – | > 100 | > 100 µM | > 100 µM | > 100 µM | – | – | – | – | – | – | – | – | – | –
